Patent publication US8044069B2, “Compounds as calcium channel blockers” (Abbott Laboratories, priority 2008, dated 2011)

Target: human Cav2.2 (Homo sapiens, UniProt Q00975)
Test: Assessment of calcium channel activity using FLIPR (Ca2+ influx in IMR32 cells)
Assay type: cell-based
Details: IMR32 cells endogenously expressing human Cav2.2; 60 minute pre-incubation; 2 μM nifedipine; depolarized with 80 mM KCl, 5 mM CaCl2
Procedure, shortened: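 FLIPR measured Ca2+ influx triggered by 80 mM KCl depolarization together with a step to 5 mM external CaCl2. Percent inhibition relative to uninhibited activity was fitted sigmoidally for IC50.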

human Cav2.2, sequence (Q00975 whole entry): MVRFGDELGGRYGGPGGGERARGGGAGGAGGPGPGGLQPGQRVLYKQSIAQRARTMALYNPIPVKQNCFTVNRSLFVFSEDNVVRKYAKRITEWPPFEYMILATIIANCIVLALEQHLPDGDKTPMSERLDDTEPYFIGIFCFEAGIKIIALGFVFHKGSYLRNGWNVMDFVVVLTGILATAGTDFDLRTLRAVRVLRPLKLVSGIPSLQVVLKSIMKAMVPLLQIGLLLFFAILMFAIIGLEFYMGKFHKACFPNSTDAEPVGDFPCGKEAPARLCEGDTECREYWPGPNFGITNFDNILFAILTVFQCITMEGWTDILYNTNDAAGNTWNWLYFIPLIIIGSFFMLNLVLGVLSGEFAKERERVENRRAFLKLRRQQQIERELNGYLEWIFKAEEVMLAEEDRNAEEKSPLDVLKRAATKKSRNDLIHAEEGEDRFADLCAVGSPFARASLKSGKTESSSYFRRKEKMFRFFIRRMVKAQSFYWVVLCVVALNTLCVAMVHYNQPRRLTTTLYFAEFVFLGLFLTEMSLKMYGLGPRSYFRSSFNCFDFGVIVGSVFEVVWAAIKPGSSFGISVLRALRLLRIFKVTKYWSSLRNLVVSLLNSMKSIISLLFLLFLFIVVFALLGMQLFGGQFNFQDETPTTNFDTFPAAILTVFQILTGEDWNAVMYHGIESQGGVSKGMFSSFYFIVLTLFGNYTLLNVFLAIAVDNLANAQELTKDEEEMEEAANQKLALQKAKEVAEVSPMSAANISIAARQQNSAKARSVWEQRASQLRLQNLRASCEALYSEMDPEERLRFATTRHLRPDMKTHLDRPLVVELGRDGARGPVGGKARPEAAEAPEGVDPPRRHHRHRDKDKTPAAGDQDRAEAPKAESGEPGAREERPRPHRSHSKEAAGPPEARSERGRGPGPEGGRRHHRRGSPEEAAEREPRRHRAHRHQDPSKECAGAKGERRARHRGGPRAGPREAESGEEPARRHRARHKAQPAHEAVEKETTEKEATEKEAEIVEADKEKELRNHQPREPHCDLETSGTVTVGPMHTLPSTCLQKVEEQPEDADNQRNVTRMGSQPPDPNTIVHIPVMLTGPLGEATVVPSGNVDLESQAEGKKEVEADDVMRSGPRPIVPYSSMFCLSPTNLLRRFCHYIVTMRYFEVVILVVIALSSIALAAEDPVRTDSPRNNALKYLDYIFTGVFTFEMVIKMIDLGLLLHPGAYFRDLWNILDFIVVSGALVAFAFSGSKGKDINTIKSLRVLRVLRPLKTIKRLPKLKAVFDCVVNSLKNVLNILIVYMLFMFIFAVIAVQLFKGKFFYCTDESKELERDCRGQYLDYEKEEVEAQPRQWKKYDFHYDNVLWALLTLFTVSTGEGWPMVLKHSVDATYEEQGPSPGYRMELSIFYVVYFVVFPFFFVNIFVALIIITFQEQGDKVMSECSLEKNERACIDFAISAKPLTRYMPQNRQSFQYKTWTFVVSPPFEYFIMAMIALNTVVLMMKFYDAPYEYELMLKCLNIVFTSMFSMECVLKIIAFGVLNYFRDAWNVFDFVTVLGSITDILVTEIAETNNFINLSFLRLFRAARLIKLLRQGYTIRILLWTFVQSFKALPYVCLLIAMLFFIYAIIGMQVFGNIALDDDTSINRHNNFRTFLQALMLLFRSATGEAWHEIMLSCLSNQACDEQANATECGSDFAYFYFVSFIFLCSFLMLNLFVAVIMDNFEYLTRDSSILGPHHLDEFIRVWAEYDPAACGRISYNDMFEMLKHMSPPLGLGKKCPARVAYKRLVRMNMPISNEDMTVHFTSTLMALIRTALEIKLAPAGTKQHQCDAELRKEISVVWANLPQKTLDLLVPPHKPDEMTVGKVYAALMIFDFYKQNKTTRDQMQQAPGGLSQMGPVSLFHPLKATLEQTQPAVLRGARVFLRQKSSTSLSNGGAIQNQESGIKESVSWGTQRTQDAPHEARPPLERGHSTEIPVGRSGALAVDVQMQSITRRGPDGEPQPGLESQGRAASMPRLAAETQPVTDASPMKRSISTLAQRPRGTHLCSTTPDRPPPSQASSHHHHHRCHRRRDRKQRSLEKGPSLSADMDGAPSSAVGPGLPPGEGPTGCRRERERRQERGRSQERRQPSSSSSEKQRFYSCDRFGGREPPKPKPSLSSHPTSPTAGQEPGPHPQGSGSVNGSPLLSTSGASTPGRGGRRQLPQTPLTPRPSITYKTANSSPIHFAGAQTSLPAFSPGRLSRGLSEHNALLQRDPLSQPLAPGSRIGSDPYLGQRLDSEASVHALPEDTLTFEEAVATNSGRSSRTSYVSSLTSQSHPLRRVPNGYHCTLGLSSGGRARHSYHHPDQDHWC
human Cav2.2, sequence (P54289 25-951 partner limits assumed): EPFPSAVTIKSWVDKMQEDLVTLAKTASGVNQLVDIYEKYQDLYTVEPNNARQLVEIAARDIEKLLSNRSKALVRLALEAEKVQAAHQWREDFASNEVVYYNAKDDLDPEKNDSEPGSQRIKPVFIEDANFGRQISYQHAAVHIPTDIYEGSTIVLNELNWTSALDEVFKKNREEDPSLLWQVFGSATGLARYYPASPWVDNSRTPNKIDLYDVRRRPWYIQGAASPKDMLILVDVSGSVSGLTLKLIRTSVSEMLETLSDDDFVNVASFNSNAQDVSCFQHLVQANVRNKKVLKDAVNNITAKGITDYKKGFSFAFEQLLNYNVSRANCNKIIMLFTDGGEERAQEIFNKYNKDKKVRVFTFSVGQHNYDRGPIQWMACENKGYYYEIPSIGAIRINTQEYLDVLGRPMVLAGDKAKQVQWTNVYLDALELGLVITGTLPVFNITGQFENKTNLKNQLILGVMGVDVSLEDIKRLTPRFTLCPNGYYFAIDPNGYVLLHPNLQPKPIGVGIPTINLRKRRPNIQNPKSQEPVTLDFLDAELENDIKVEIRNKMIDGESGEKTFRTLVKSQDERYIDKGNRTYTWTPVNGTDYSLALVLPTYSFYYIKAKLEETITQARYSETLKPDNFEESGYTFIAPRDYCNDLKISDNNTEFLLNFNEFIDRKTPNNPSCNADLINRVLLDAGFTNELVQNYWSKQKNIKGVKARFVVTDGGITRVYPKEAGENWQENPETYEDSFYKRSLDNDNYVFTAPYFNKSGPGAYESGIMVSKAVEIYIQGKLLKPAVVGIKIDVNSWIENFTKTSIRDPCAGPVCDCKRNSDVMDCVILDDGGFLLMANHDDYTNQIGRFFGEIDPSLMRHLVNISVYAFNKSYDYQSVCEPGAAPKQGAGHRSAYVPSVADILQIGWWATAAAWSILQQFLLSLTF
human Cav2.2, sequence (P54289 952-1103 partner limits assumed): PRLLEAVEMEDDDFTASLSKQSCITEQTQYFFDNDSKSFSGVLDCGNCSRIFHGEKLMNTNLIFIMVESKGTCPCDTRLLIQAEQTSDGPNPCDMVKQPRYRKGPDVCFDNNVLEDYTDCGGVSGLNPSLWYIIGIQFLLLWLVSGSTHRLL
human Cav2.2, sequence (P54284 whole entry partner): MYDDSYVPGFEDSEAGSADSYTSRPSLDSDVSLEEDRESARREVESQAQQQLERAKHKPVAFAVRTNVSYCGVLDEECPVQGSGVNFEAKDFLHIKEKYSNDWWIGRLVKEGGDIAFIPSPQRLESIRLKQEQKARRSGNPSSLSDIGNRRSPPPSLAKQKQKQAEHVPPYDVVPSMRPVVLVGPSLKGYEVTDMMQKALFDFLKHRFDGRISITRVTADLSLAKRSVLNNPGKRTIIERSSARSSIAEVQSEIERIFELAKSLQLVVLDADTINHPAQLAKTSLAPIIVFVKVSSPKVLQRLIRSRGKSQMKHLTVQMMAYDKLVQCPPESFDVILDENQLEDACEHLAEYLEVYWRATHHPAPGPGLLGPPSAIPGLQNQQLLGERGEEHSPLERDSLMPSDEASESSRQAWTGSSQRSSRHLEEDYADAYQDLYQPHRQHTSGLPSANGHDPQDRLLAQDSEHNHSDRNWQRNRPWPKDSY

For `O=C(CN1CCCC(c2ccc(F)cc2)(c2ccc(F)cc2)C1=O)N1CCN(Cc2cccc(C(F)(F)F)c2)CC1` [Example 175, 3,3-bis(4-fluorophenyl)-1-(2-oxo-2-{4-[3-(trifluoromethyl)benzyl]piperazin-1-yl}ethyl)piperidin-2-one], the IC50 was 1250 nM.

Compound `O=C(CN1CCC(c2ccccc2)(c2ccccc2)C1=O)N1CCc2ccc(C(F)(F)F)cc2C1` [Example 55, 1-{2-oxo-2-[7-(trifluoromethyl)-3,4-dihydroisoquinolin-2(1H)-yl]ethyl}-3,3-diphenylpyrrolidin-2-one] has an IC50 of 2130 nM.

Compound `O=C(CN1CCCC(c2ccccc2)(c2ccccc2)C1=O)N1CC(c2ccc(C(F)(F)F)cc2)C1` [Example 240, 1-(2-oxo-2-{3-[4-(trifluoromethyl)phenyl]azetidin-1-yl}ethyl)-3,3-diphenylpiperidin-2-one] has an IC50 of 3070 nM.

With `CN(CCN1CCC(c2ccc(F)cc2)(c2ccc(F)cc2)C1=O)CC(O)COc1cccc2ncccc12` (stereo not drawn) [Example 108, 3,3-bis(4-fluorophenyl)-1-{2-[[2-hydroxy-3-(quinolin-5-yloxy)propyl](methyl)amino]ethyl}pyrrolidin-2-one] the IC50 was 1000 nM.

Work on `CN(C(=O)CN1CCCC(c2ccccc2)(c2ccccc2)C1=O)C1CCN(Cc2cccc(C(F)(F)F)c2)CC1` [Example 197, N-methyl-2-(2-oxo-3,3-diphenylpiperidin-1-yl)-N-{1-[3-(trifluoromethyl)benzyl]piperidin-4-yl}acetamide] yielded an IC50 of 1000 nM.

For `O=C(CN1CCC[C@@H](c2ccccc2)C1=O)N1Cc2ccc(F)cc2C1` (single isomer, unassigned) [Example 187], the IC50 was over 30000 nM.

`O=C(CN1CCC(c2ccccc2)(c2ccccc2)C1=O)N1CCNC(Cc2ccccc2)C1` (stereo not drawn) [Example 18, 1-[2-(3-benzylpiperazin-1-yl)-2-oxoethyl]-3,3-diphenylpyrrolidin-2-one] showed an IC50 of 2650 nM.

With `Cc1ccc(-c2noc(CN3CCC(c4ccccc4)(c4ccccc4)C3=O)n2)cc1` [Example 195, 1-{[3-(4-methylphenyl)-1,2,4-oxadiazol-5-yl]methyl}-3,3-diphenylpyrrolidin-2-one] the IC50 was 3570 nM.

For `O=C(CN1CCCC(c2ccccc2)(c2ccccc2)C1=O)NC1CCN(Cc2ccc(F)c(C(F)(F)F)c2)CC1` [Example 183, N-{1-[4-fluoro-3-(trifluoromethyl)benzyl]piperidin-4-yl}-2-(2-oxo-3,3-diphenylpiperidin-1-yl)acetamide], the IC50 was 960 nM.

`O=C(CN1CCC(c2ccccc2)(c2ccccc2)C1=O)NCc1cccc(C(F)(F)F)c1` [Example 7, 2-(2-oxo-3,3-diphenylpyrrolidin-1-yl)-N-[3-(trifluoromethyl)benzyl]acetamide] gave an IC50 of 2330 nM.

With `O=C(CCCN1CCC(c2ccccc2)(c2ccccc2)C1=O)N1Cc2ccc(C(F)(F)F)cc2C1` [Example 223, 1-{4-oxo-4-[5-(trifluoromethyl)-1,3-dihydro-2H-isoindol-2-yl]butyl}-3,3-diphenylpyrrolidin-2-one] the IC50 was 2040 nM.

With `O=C(CN1CCC(c2ccccc2)(c2ccccc2)C1=O)N1Cc2ccc(F)cc2C1` [Example 26, 1-[2-(5-fluoro-1,3-dihydro-2H-isoindol-2-yl)-2-oxoethyl]-3,3-diphenylpyrrolidin-2-one] the IC50 was 4930 nM.

With `O=C(CN1CCCC(c2ccccc2)(c2ccccc2)C1=O)N1CCN(C(c2ccc(F)cc2)c2ccc(F)cc2)CC1` [Example 82, 1-(2-{4-[bis(4-fluorophenyl)methyl]piperazin-1-yl}-2-oxoethyl)-3,3-diphenylpiperidin-2-one] the IC50 was 2360 nM.

`O=C(CN1CCC(c2ccc(F)cc2)(c2ccc(F)cc2)C1=O)N1CCN(Cc2cccc(C(F)(F)F)c2)CC1` [Example 60, 3,3-bis(4-fluorophenyl)-1-(2-oxo-2-{4-[3-(trifluoromethyl)benzyl]piperazin-1-yl}ethyl)pyrrolidin-2-one] showed an IC50 of 1010 nM.

In the case of `O=C(CN1CCCC(c2ccccc2)(c2ccccc2)C1=O)N1CCN(Cc2ccc(C(F)(F)F)cc2)CC1` [Example 80, 1-(2-oxo-2-{4-[4-(trifluoromethyl)benzyl]piperazin-1-yl}ethyl)-3,3-diphenylpiperidin-2-one], the IC50 is reported as 1380 nM.

`COc1cccc(C2(C(C)C)CCCN(CCCN(C)CCc3ccc(F)cc3)C2=O)c1` (stereo not drawn) [Example 129, 1-{3-[[2-(4-fluorophenyl)ethyl](methyl)amino]propyl}-3-isopropyl-3-(3-methoxyphenyl)piperidin-2-one] gave an IC50 of 1140 nM.

Compound `O=C(CN1CCCC(c2ccccc2)(c2ccccc2)C1=O)N1CCC(n2nnc3cc(C(F)(F)F)ccc32)CC1` [Example 164, 1-(2-oxo-2-{4-[5-(trifluoromethyl)-1H-1,2,3-benzotriazol-1-yl]piperidin-1-yl}ethyl)-3,3-diphenylpiperidin-2-one] has an IC50 of 2020 nM.

`O=C(CN1CCCC(c2ccccc2)(c2ccccc2)C1=O)N1CCN(Cc2ccc(Cl)cc2Cl)CC1` [Example 169, 1-{2-[4-(2,4-dichlorobenzyl)piperazin-1-yl]-2-oxoethyl}-3,3-diphenylpiperidin-2-one] showed an IC50 of 1800 nM.

With `O=C1N(Cc2nc(Cc3ccc(Cl)cc3)no2)CCCC1(c1ccccc1)c1ccccc1` [Example 207, 1-{[3-(4-chlorobenzyl)-1,2,4-oxadiazol-5-yl]methyl}-3,3-diphenylpiperidin-2-one] the IC50 was 5030 nM.

`O=C(CN1CCC(c2ccccc2)(c2ccccc2)C1=O)N1CCC(C(c2ccccc2)c2ccccc2)CC1` [Example 30, 1-[2-(4-benzhydrylpiperidin-1-yl)-2-oxoethyl]-3,3-diphenylpyrrolidin-2-one] showed an IC50 of 650 nM.

Compound `O=C1N(CCN2CCc3ccc(C(F)(F)F)cc3C2)CCC1(c1ccccc1)c1ccccc1` [Example 67, 3,3-diphenyl-1-{2-[7-(trifluoromethyl)-3,4-dihydroisoquinolin-2(1H)-yl]ethyl}pyrrolidin-2-one] has an IC50 of 3440 nM.

In the case of `O=C1N(S(=O)(=O)c2cccc(C(F)(F)F)c2)CCCC1(c1ccccc1)c1ccccc1` [Example 146, 3,3-diphenyl-1-{[3-(trifluoromethyl)phenyl]sulfonyl}piperidin-2-one], the IC50 is reported as 6780 nM.

In the case of `COc1ccc(C2(c3ccc(OC)cc3)CCCN(CCCN3CCN(Cc4cc(OC)cc(OC)c4)CC3)C2=O)cc1` [Example 131, 1-{3-[4-(3,5-dimethoxybenzyl)piperazin-1-yl]propyl}-3,3-bis(4-methoxyphenyl)piperidin-2-one], the IC50 is reported as 2300 nM.

Work on `O=C(CN1CCC(c2ccccc2)(c2ccccc2)C1=O)NCc1ccccc1` [Example 6, N-benzyl-2-(2-oxo-3,3-diphenylpyrrolidin-1-yl)acetamide] yielded an IC50 of 5740 nM.

`O=C(CN1CCC(c2ccc(F)cc2)(c2ccc(F)cc2)C1=O)Nc1ccc(C(F)(F)F)cc1` [Example 218, 2-[3,3-bis(4-fluorophenyl)-2-oxopyrrolidin-1-yl]-N-[4-(trifluoromethyl)phenyl]acetamide] gave an IC50 of 6800 nM.

For `O=C(CN1CCCC(c2ccccc2)(c2ccccc2)C1=O)N1CCC(NC(c2ccccc2)c2ccccc2)CC1` [Example 87, 1-{2-[4-(benzhydrylamino)piperidin-1-yl]-2-oxoethyl}-3,3-diphenylpiperidin-2-one], the IC50 was 760 nM.

For `O=C(CN1CCC(c2ccc(F)cc2)(c2ccc(F)cc2)C1=O)N1CCC(C(O)(c2ccc(F)cc2)c2ccc(F)cc2)CC1` [Example 271, 1-(2-{4-[bis(4-fluorophenyl)(hydroxy)methyl]piperidin-1-yl}-2-oxoethyl)-3,3-bis(4-fluorophenyl)pyrrolidin-2-one], the IC50 was 2570 nM.

`O=C1N(Cc2nc(-c3ccc(C(F)(F)F)nc3)no2)CCC1(c1ccccc1)c1ccccc1` [Example 211, 3,3-diphenyl-1-({3-[6-(trifluoromethyl)pyridin-3-yl]-1,2,4-oxadiazol-5-yl}methyl)pyrrolidin-2-one] gave an IC50 of 3150 nM.

In the case of `O=C(CN1CCCC(c2ccccc2)C1=O)N1Cc2ccc(F)cc2C1` (stereo not drawn) [Example 95, 1-[2-(5-fluoro-1,3-dihydro-2H-isoindol-2-yl)-2-oxoethyl]-3-phenylpiperidin-2-one], the IC50 is reported as 34800 nM.

In the case of `O=C1N(Cc2nc(COc3ccc(Cl)cc3)no2)CCCC1(c1ccccc1)c1ccccc1` [Example 263, 1-({3-[(4-chlorophenoxy)methyl]-1,2,4-oxadiazol-5-yl}methyl)-3,3-diphenylpiperidin-2-one], the IC50 is reported as 3490 nM.

With `O=C(CN1CCCC(c2ccccc2)(c2ccccc2)C1=O)NC1CCN(Cc2cccc(C(F)(F)F)c2)CC1` [Example 200, 2-(2-oxo-3,3-diphenylpiperidin-1-yl)-N-{1-[3-(trifluoromethyl)benzyl]piperidin-4-yl}acetamide] the IC50 was 1010 nM.

In the case of `COCc1cc(/C=C/c2ccccc2OCC(O)CN(C)CCN2CCC(c3ccc(F)cc3)(c3ccc(F)cc3)C2=O)on1` (stereo not drawn) [Example 107, 3,3-bis(4-fluorophenyl)-1-{2-[[2-hydroxy-3-(2-{(E)-2-[3-(methoxymethyl)isoxazol-5-yl]vinyl}phenoxy)propyl](methyl)amino]ethyl}pyrrolidin-2-one], the IC50 is reported as 1880 nM.

For `O=C(CN1CCCC(c2ccccc2)(c2ccccc2)C1=O)N1CCC(c2cccc(C(F)(F)F)c2)CC1` [Example 243, 1-(2-oxo-2-{4-[3-(trifluoromethyl)phenyl]piperidin-1-yl}ethyl)-3,3-diphenylpiperidin-2-one], the IC50 was 4370 nM.

For `O=C1N(CCCN2CCN(c3ncccn3)CC2)CCCC1(c1ccc(F)cc1)c1ccc(F)cc1` [Example 135, 3,3-bis(4-fluorophenyl)-1-[3-(4-pyrimidin-2-ylpiperazin-1-yl)propyl]piperidin-2-one], the IC50 was 3010 nM.

`O=C1N(CCN2CCN(c3cccc(C(F)(F)F)c3)CC2)CCC1(c1ccc(F)cc1)c1ccc(F)cc1` [Example 111, 3,3-bis(4-fluorophenyl)-1-(2-{4-[3-(trifluoromethyl)phenyl]piperazin-1-yl}ethyl)pyrrolidin-2-one] gave an IC50 of 3940 nM.

Work on `CC(C)COc1ccc(-c2noc(CN3CCCC(c4ccccc4)(c4ccccc4)C3=O)n2)cc1` [Example 209, 1-{[3-(4-isobutoxyphenyl)-1,2,4-oxadiazol-5-yl]methyl}-3,3-diphenylpiperidin-2-one] yielded an IC50 of 10700 nM.
